Test results taken from patent US20240277890A1, “ANTIMICROBIAL ARTICLES COMPRISING POLYURETHANE” (Amicoat AS, priority 2021, published 2024).
In brackets after ≈: the same amount, converted by molar mass.

Key:
[1] = tested on: Salmonella sp - multi-drug resistant clinical isolate; experiment: MIC microbroth dilution (CLSI); type: cell-based
[2] = tested on: Shigella sp - antibiotic-susceptible clinical isolate; experiment: MIC microbroth dilution (CLSI); type: cell-based
[3] = tested on: Propionibacterium acnes- antibiotic-susceptible clinical isolate; experiment: MIC microbroth dilution (CLSI); type: cell-based; conditions: P. acnes antibiotic-susceptible
Description: Supplemented Brucella broth (SBB) was used for the anaerobic strains with an inoculum of approximately 10^6 CFU/mL. SBB is a broth consisting of 1% peptone, 0.5% ‘Lab-lemco’, 1% glucose and 0.5% sodium chloride supplemented with 5 μg/L haemin and 1 μg/L vitamin K (both obtained from Sigma Aldrich Ltd.) Yeast and filamentous fungal MIC were performed in MOPS buffered RPMI 1640 medium (MOPS buffer obtained from Sigma Aldrich Ltd., RPMI 1640 obtained from Invitrogen Ltd, Paisley, Scotland). The yeast inocula were in the range 7.5×10^2-4×10^3 CFU/mL and the filamentous fungi approximately 8×10^3-1×10^5 CFU/mL.
MICs were determined as described in Example 2.

[4] = tested on: Aspergillus niger - G.R. Micro collection
[5] = tested on: Trichophyton interdigitale - G.R. Micro collection
[6] = tested on: Microsporum canis - G.R. Micro collection
[7] = tested on: Cryptococcus neoformans - G.R. Micro collection
[8] = tested on: Escherichia coli ATCC25922 - antibiotic-susceptible type strain; conditions: ATCC25922
[9] = tested on: Escherichia coli ATCC32518 - β-lactamase positive type strain
[10] = tested on: Escherichia coli - multi-drug resistant clinical isolate
[11] = tested on: Klebsiella aerogenes - multi-drug resistant clinical isolate
[12] = tested on: Enterobacter sp - multi-drug resistant clinical isolate
[13] = tested on: Pseudomonas aeruginosa ATCC27853 - antibiotic-susceptible type strain; conditions: ATCC27853
[14] = tested on: Pseudomonas aeruginosa - multi-drug resistant clinical isolate
[15] = tested on: Haemophilus influenzae - β-lactamase positive clinical isolate
[16] = tested on: Staphylococcus aureus ATCC 29213 - antibiotic-susceptible control strain; conditions: ATCC 29213
[17] = tested on: Staphylococcus aureus ATCC 25923 - antibiotic-susceptible control strain
[18] = tested on: Staphylococcus aureus ATCC 43300 - methicillin-resistant control strain
[19] = tested on: Staphylococcus aureus - methicillin-resistant clinical isolate
[20] = tested on: Staphylococcus aureus - teicoplanin-intermediate clinical isolate
[21] = tested on: Staphylococcus epidermidis antibiotic susceptible clinical isolate
[22] = tested on: Staphylococcus epidermidis methicillin-resistant clinical isolate
[23] = tested on: Enterococcus faecalis - ATCC 29212 antibiotic-susceptible control strain; conditions: ATCC 29212
[24] = tested on: Enterococcus faecalis vancomycin-susceptible clinical isolate
[25] = tested on: Enterococcus faecium vancomycin-susceptible clinical isolate
[26] = tested on: Enterococcus faecium vancomycin-resistant (VanB) clinical isolate
[27] = tested on: Streptococcus pyogenes - Macrolide (M-type) resistance clinical isolate
[28] = tested on: Corynebacterium jeikeium - multi-drug resistant clinical isolate
[29] = tested on: Listeria monocytogenes - antibiotic-susceptible clinical isolate
[30] = tested on: EMRSA3 Staphylococcus aureus (MRSA) - SSCmec type 1; conditions: EMRSA3 - SSCmec type 1
[31] = tested on: EMRSA16 Staphylococcus aureus (MRSA) - SSCmec type 2; conditions: EMRSA16 - SSCmec type 2
[32] = tested on: Streptococcus agalactiae - macrolide-resistant clinical isolate
[33] = tested on: Methicillin resistant Staphylococcus epidermidis (MRSE) strain ATCC 27626; conditions: ATCC 27626
[34] = tested on: C. albicans
[35] = tested on: S. pyogenes
[36] = tested on: E. coli
[37] = tested on: P. aeruginosa

With `CCCCCCNC(=O)[C@H](CCCNC(=N)N)NC(=O)[C@H](Cc1c(C(C)(C)C)[nH]c2c(C(C)(C)C)cc(C(C)(C)C)cc12)NC(=O)[C@@H](N)CCCNC(=N)N` [Compound 8] the MIC [1] was 8 µg/mL (≈ 10.4 µM), the MIC [2] was 4 µg/mL (≈ 5.21 µM) and the MIC [3] was 4 µg/mL (≈ 5.21 µM). It also gave an MIC [4] of 4 µg/mL (≈ 5.21 µM), an MIC [5] of 4 µg/mL (≈ 5.21 µM) and an MIC [6] of 4 µg/mL (≈ 5.21 µM). For the same molecule, the MIC [7] was 2 µg/mL (≈ 2.6 µM), the MIC [8] was 4 µg/mL (≈ 5.21 µM) and the MIC [9] was 8 µg/mL (≈ 10.4 µM). For the same molecule, the MIC [10] was 8 µg/mL (≈ 10.4 µM), the MIC [11] was 8 µg/mL (≈ 10.4 µM) and the MIC [12] was 8 µg/mL (≈ 10.4 µM). It also gave an MIC [13] of 8 µg/mL (≈ 10.4 µM), an MIC [14] of 4 µg/mL (≈ 5.21 µM) and an MIC [15] of 4 µg/mL (≈ 5.21 µM). The MIC [16] was 4 µg/mL (≈ 5.21 µM), the MIC [17] was 4 µg/mL (≈ 5.21 µM) and the MIC [18] was 4 µg/mL (≈ 5.21 µM). It also gave an MIC [19] of 4 µg/mL (≈ 5.21 µM), an MIC [20] of 4 µg/mL (≈ 5.21 µM) and an MIC [21] of 8 µg/mL (≈ 10.4 µM). For the same molecule, the MIC [22] was 2 µg/mL (≈ 2.6 µM), the MIC [23] was 4 µg/mL (≈ 5.21 µM) and the MIC [24] was 4 µg/mL (≈ 5.21 µM). It also gave an MIC [25] of 4 µg/mL (≈ 5.21 µM), an MIC [26] of 4 µg/mL (≈ 5.21 µM) and an MIC [27] of 8 µg/mL (≈ 10.4 µM). The MIC [28] was 2 µg/mL (≈ 2.6 µM), the MIC [29] was 8 µg/mL (≈ 10.4 µM) and the MIC [30] was 4 µg/mL (≈ 5.21 µM). The MIC [31] was 4 µg/mL (≈ 5.21 µM), the MIC [32] was 8 µg/mL (≈ 10.4 µM) and the “MRSE (MIC)” value [33] was less than 1 µg/mL. The “C. albicans (MIC)” value [34] was 5 µg/mL, the “S. pyogenes (MIC)” value [35] was 2 µg/mL and the “E. coli (MIC)” value [36] was 5 µg/mL. The “P. aeruginosa (MIC)” value [37] was 5 µg/mL.
